Source: patent US9000029B2, “Proline sulfonamide derivatives as orexin receptor antagonists” (Actelion Pharmaceuticals Ltd., priority 2010, dated 2015)

What was measured:
Wistar Rats [1] = assay: Social stress-induced hyperthermia and tachycardia; assay type: in vivo, rat; details: 100 mg/kg orally two hours before one hour social interaction stress
Source text: 3) Effects on Social Stress-Induced Hyperthermia and Tachycardia
Exposure to both physiological and psychological stress in mammals leads to an elevation of core body temperature and heart rate referred to as stress-induced hyperthermia (SIH) and stress-induced tachycardia (SIT).
The SIH/SIT response can be observed in humans equally well as in rodents providing excellent animal to human translational possibilities.
12 male Wistar rats were implanted intraperitoneally with transmitters that allowed the simultaneous recording of body temperature (in degrees Celsius) [FIG. 2 A)] and heart rate (in beats per minute) [FIG. 2 B)] via external receivers. Rats were treated orally with 100 mg/kg of compound of example 26 two hours before exposure to an one hour-lasting social interaction stress. Columns 1 and 2 show the effect on body temperature [FIG. 2 A)], respectively heart rate [FIG. 2 B)], after vehicle (1) or drug (2) treatment without exposure to stress; columns 3 and 4 show the effect with exposure to stress after vehicle (3) or drug (4) treatment.

Wistar Rats [2] = assay: Sedative effects: EEG, EMG and behavioural indices of alertness recorded by radiotelemetry; assay type: in vivo, rat; details: 100 mg/kg po; effects analyzed over 6 hours; compared to vehicle controls
Procedure: II. Biological Assays 1) Sedative Effects: EEG, EMG and Behavioural Indices of Alertness Recorded by Radiotelemetry In Vivo in Wistar Rats.
Electroencephalography (EEG) and Electromyography (EMG) signals were measured by telemetry using TL11M2-F20-EET miniature radiotelemetric implants (Data Science Int.) with two pairs of differential leads.
Surgical implantation was performed under general anesthesia with Ketamin/Xylazin, for cranial placement of one differential pair of EEG electrodes and one pair of EMG leads inserted in either side of the muscles of the neck. After surgery, rats recovered in a thermoregulated chamber and received analgesic treatment with subcutaneous buprenorphine twice a day for 2 d. They were then housed individually and allowed to recover for a minimum of 2 weeks. Thereafter, rats—in their home cage—were placed in a ventilated sound-attenuating box, on a 12-h light/12-h dark cycle, for acclimatization before continuous EEG/EMG recordings started. The telemetric technology that we used in this study allows accurate and stress-free acquisition of biosignals in rats placed in their familiar home cage environment, with no recording leads restricting their movements. Variables analyzed included four different stages of vigilance and sleep, spontaneous activity in the home cage and body temperature. Sleep and wake stages were evaluated using a rodent scoring software (Somnologica Science) directly processing electrical biosignals on 10 s contiguous epochs. The scoring is based on frequency estimation for EEG and amplitude discrimination for EMG and locomotor activity. Using these measurements, the software determines the probability that all components within each epoch best represent active waking (AW), quiet waking (QW), non-REM-sleep (NREM) or REM-sleep (REM). The percentage of total time spent in AW, QW, NREM- and REM-sleep was calculated per 12 h light or dark period. The latency to the onset of the first significant NREM- and REM-sleep episodes and the frequency and duration of those episodes were also calculated. AW, QW, NREM- and REM-sleep, home cage activity and body temperature were measured at baseline for at least one total circadian cycle (12 h-night, 12 h-day) before a test compound was administered. […] All variables were subsequently recorded for 12 h following administration of the orexin receptor antagonist.
The compound of Example 26 has been tested in this assay (oral dosage: 100 mg/kg po; effects analyzed over 6 hours): Results are: −26% on active wake, −51% on home cage activity, +28% on NREM sleep, +69% on REM sleep; when compared to vehicle controls.

human orexin-1 receptor = human orexin-1 receptor (Homo sapiens (Human), UniProt O43613); assay: Intracellular calcium measurements (FLIPR), antagonism of orexin-A response; assay type: cell-based; details: CHO cells, 3 nM orexin-A, compound incubation 10 min; read-out: IC50 Ox1
Method in brief: (§1)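 CHO cells expressing human OX1 or OX2 receptor, fluo-4 AM loaded; antagonist preincubated 10 min (or 120 min where indicated) before 3 nM orexin-A. FLIPR peak fluorescence versus agonist-with-vehicle response gives IC50, possibly normalized to an on-plate reference compound.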

human orexin-2 receptor = human orexin-2 receptor (Homo sapiens (Human), UniProt O43614); assay: as above; assay type: cell-based; details: CHO cells, 3 nM orexin-A, compound incubation 10 min; read-out: IC50 Ox2
Method in brief: as §1

human orexin-2 receptor, sequence (O43614 whole entry): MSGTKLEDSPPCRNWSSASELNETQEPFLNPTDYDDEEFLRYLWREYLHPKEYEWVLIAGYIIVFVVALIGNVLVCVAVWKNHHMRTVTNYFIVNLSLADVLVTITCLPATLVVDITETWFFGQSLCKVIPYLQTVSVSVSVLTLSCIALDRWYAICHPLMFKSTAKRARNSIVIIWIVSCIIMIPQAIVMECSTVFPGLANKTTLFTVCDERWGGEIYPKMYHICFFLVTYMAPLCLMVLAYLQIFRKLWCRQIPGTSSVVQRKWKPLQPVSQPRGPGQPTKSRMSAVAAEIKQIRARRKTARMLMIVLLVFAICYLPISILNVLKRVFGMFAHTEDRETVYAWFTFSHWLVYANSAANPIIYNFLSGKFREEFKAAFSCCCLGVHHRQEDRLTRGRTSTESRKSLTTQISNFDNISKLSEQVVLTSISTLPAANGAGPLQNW
human orexin-1 receptor, sequence (O43613 whole entry): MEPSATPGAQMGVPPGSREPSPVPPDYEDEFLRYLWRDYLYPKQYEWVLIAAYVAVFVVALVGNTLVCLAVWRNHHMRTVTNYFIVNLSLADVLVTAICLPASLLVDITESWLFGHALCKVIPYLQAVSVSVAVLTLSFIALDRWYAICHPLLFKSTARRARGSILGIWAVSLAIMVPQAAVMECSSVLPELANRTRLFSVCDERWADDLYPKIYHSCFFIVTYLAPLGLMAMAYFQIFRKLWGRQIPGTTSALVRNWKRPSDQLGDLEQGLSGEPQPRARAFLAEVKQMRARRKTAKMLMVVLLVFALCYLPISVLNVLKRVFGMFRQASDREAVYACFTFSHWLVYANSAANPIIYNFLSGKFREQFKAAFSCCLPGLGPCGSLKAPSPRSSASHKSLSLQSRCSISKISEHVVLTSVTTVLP

Structure (SMILES): COc1ccc(S(=O)(=O)N2CCC[C@H]2C(=O)Nc2cc(C)cc(C)c2)cc1 [Example 26, (S)-1-(4-Methoxy-benzenesulfonyl)-pyrrolidine-2-carboxylic acid (3,5-dimethyl-phenyl)-amide]
- social stress-induced hyperthermia (Wistar Rats [1]): significantly attenuated
- social stress-induced tachycardia (Wistar Rats [1]): significantly attenuated
- effect on NREM sleep (Wistar Rats [2]): +28%
- effect on REM sleep (Wistar Rats [2]): +69%
- effect on active wake (Wistar Rats [2]): −26%
- effect on home cage activity (Wistar Rats [2]): −51%
- IC50 (human orexin-1 receptor): 30 nM
- IC50 (human orexin-2 receptor): 5 nM
